Test results reported in patent US20130178597A1, “POLYIMIDE PRECURSOR, POLYIMIDE, AND MATERIALS TO BE USED IN PRODUCING SAME” (UBE INDUSTRIES, LTD., priority 2010, published 2013).

Key:
[1] = Light transmittance at 400 nm of a-BPDA powder, 10 mass % in 2 N aqueous sodium hydroxide; assay type: physicochemical; conditions: light path 1 cm
[2] = Light transmittance at 400 nm of s-BPDA powder, 10 mass % in 2 N aqueous sodium hydroxide; assay type: physicochemical; conditions: light path 1 cm
Experimental: (§1) A predetermined amount of s-BPDA powder was dissolved in a 2 N aqueous solution of sodium hydroxide to obtain a 10 mass % aqueous solution. Using a MCPD-300 manufactured by Otsuka Electronics Co., Ltd., and a standard cell having a light path length of 1 cm, the light transmittance at 400 nm of the s-BPDA solution was measured using the 2 N aqueous solution of sodium hydroxide as a blank.

[3] = Solubility of s-BPDA at 25° C. in solvent; conditions: s-BPDA in the solvent used in the example
Experimental: The non-dissolved s-BPDA was filtered through filter paper 5A manufactured by Advantec, Inc. to obtain s-BPDA saturated solution. 5 g of the s-BPDA saturated solution was charged into an aluminum dish, heated for 1 hour at 80° C., and then heated for 1 hour at 200° C. The solubility was calculated by determining the mass of s-BPDA remaining in the saturated solution based on the residue after heating.

[4] = Light transmittance at 400 nm of i-BPDA powder, 10 mass % in 2 N aqueous sodium hydroxide; assay type: physicochemical; conditions: light path 1 cm
Experimental: as §1, with “i-BPDA” for “s-BPDA”

[5] = Solubility of i-BPDA at 25° C. in solvent; assay type: physicochemical; conditions: i-BPDA in the solvent used in the example
Experimental: The non-dissolved i-BPDA was filtered through filter paper 5A manufactured by Advantec, Inc. to obtain i-BPDA saturated solution. 5 g of the i-BPDA saturated solution was charged into an aluminum dish, heated for 1 hour at 80° C., and then heated for 1 hour at 200° C. The solubility was calculated by determining the mass of i-BPDA remaining in the saturated solution based on the residue after heating.

[6] = Light transmittance at 400 nm of trans-1,4-diaminocyclohexane powder, 10 mass % in pure water; assay type: physicochemical; conditions: light path 1 cm
Experimental: as §1, with “trans-1,4-diaminocyclohexane” for “s-BPDA”, “pure water” for “a 2 N aqueous solution of sodium hydroxide”, “pure water” for “the 2 N aqueous solution of sodium hydroxide”

[7] = Light transmittance of solvent at 400 nm; assay type: physicochemical; conditions: light path 1 cm, water as a blank
Experimental: Using a MCPD-300 manufactured by Otsuka Electronics Co., Ltd., and a standard cell having a light path length of 1 cm, the light transmittance of a solvent at 400 nm was measured using water as a blank.

[8] = Light transmittance of solvent at 400 nm after heating with refluxing; assay type: physicochemical; conditions: heated to reflux for 3 hours under nitrogen atmosphere
Experimental: For light transmittance after heating with refluxing, measurement was carried out using a solvent that had been heated to reflux for 3 hours under nitrogen atmosphere having oxygen concentration of 200 ppm or less.

With `O=C1OC(=O)c2cc(-c3cccc4c3C(=O)OC4=O)ccc21` [Comparative Example C1, 2,3,3′,4′-Biphenyltetracarboxylic dianhydride, reference compound] the “light transmittance at 400 nm (a-BPDA powder)” value [1] was 77%.

With `O=C1OC(=O)c2cc(-c3cccc4c3C(=O)OC4=O)ccc21` [Comparative Example C2, 2,3,3′,4′-Biphenyltetracarboxylic dianhydride, reference compound] the “light transmittance at 400 nm (a-BPDA powder)” value [1] was 81%.

For `O=C1OC(=O)c2cc(-c3cccc4c3C(=O)OC4=O)ccc21` [Comparative Example C4, 2,3,3′,4′-Biphenyltetracarboxylic dianhydride, reference compound], the “light transmittance at 400 nm (a-BPDA powder)” value [1] was 84%.

For `O=C1OC(=O)c2cc(-c3ccc4c(c3)C(=O)OC4=O)ccc21` [Comparative Example D1, 3,3′,4,4′-Biphenyltetracarboxylic dianhydride, reference compound], the “light transmittance of obtained s-BPDA powder at 400 nm” value [2] was 75%.

With `O=C1OC(=O)c2cc(-c3ccc4c(c3)C(=O)OC4=O)ccc21` [Comparative Example D2, 3,3′,4,4′-Biphenyltetracarboxylic dianhydride, reference compound] the “light transmittance of obtained s-BPDA powder at 400 nm” value [2] was 75% and the “Solubility of used solvent at 25° C.” value [3] was under 0.1 g/100 g.

With `O=C1OC(=O)c2cc(-c3ccc4c(c3)C(=O)OC4=O)ccc21` [Comparative Example D3, 3,3′,4,4′-Biphenyltetracarboxylic dianhydride, reference compound] the “light transmittance of obtained s-BPDA powder at 400 nm” value [2] was 75% and the “Solubility of used solvent at 25° C.” value [3] was under 0.1 g/100 g.

With `O=C1OC(=O)c2cc(-c3ccc4c(c3)C(=O)OC4=O)ccc21` [Comparative Example D4, 3,3′,4,4′-Biphenyltetracarboxylic dianhydride, reference compound] the “light transmittance of obtained s-BPDA powder at 400 nm” value [2] was 72%.

In the case of `O=C1OC(=O)c2cc(-c3ccc4c(c3)C(=O)OC4=O)ccc21` [Comparative Example D5, 3,3′,4,4′-Biphenyltetracarboxylic dianhydride, reference compound], the “light transmittance of obtained s-BPDA powder at 400 nm” value [2] is reported as 3%.

In the case of `O=C1OC(=O)c2c1cccc2-c1cccc2c1C(=O)OC2=O` [Comparative Example F1, 2,2′,3,3′-Biphenyltetracarboxylic dianhydride, reference compound], the “Light Transmittance at 400 nm (i-BPDA)” value [4] is reported as 79%.

With `O=C1OC(=O)c2c1cccc2-c1cccc2c1C(=O)OC2=O` [Comparative Example F2, 2,2′,3,3′-Biphenyltetracarboxylic dianhydride, reference compound] the “Solubility at 25° C.” value [5] was under 0.1 g/100 g and the “Light Transmittance at 400 nm (i-BPDA)” value [4] was 79%.

With `O=C1OC(=O)c2c1cccc2-c1cccc2c1C(=O)OC2=O` [Comparative Example F3, 2,2′,3,3′-Biphenyltetracarboxylic dianhydride, reference compound] the “Light Transmittance at 400 nm (i-BPDA)” value [4] was 66%.

For `O=C1OC(=O)c2cc(-c3cccc4c3C(=O)OC4=O)ccc21` [Example C1, 2,3,3′,4′-Biphenyltetracarboxylic dianhydride], the “light transmittance at 400 nm (a-BPDA powder)” value [1] was 98%.

In the case of `O=C1OC(=O)c2cc(-c3cccc4c3C(=O)OC4=O)ccc21` [Example C2, 2,3,3′,4′-Biphenyltetracarboxylic dianhydride], the “light transmittance at 400 nm (a-BPDA powder)” value [1] is reported as 97%.

In the case of `O=C1OC(=O)c2cc(-c3cccc4c3C(=O)OC4=O)ccc21` [Example C3, 2,3,3′,4′-Biphenyltetracarboxylic dianhydride], the “light transmittance at 400 nm (a-BPDA powder)” value [1] is reported as 94%.

For `O=C1OC(=O)c2cc(-c3cccc4c3C(=O)OC4=O)ccc21` [Example C4, 2,3,3′,4′-Biphenyltetracarboxylic dianhydride], the “light transmittance at 400 nm (a-BPDA powder)” value [1] was 92%.

In the case of `O=C1OC(=O)c2cc(-c3cccc4c3C(=O)OC4=O)ccc21` [Example C5, 2,3,3′,4′-Biphenyltetracarboxylic dianhydride], the “light transmittance at 400 nm (a-BPDA powder)” value [1] is reported as 89%.

In the case of `O=C1OC(=O)c2cc(-c3ccc4c(c3)C(=O)OC4=O)ccc21` [Example D1, 3,3′,4,4′-Biphenyltetracarboxylic dianhydride], the “light transmittance of obtained s-BPDA powder at 400 nm” value [2] is reported as 81% and the “Solubility of used solvent at 25° C.” value [3] is reported as 1.3 g/100 g.

In the case of `O=C1OC(=O)c2cc(-c3ccc4c(c3)C(=O)OC4=O)ccc21` [Example D2, 3,3′,4,4′-Biphenyltetracarboxylic dianhydride], the “light transmittance of obtained s-BPDA powder at 400 nm” value [2] is reported as 81%.

In the case of `O=C1OC(=O)c2cc(-c3ccc4c(c3)C(=O)OC4=O)ccc21` [Example D3, 3,3′,4,4′-Biphenyltetracarboxylic dianhydride], the “light transmittance of obtained s-BPDA powder at 400 nm” value [2] is reported as 82% and the “Solubility of used solvent at 25° C.” value [3] is reported as 2.3 g/100 g.

In the case of `O=C1OC(=O)c2cc(-c3ccc4c(c3)C(=O)OC4=O)ccc21` [Example D4, 3,3′,4,4′-Biphenyltetracarboxylic dianhydride], the “light transmittance of obtained s-BPDA powder at 400 nm” value [2] is reported as 78%.

For `O=C1OC(=O)c2cc(-c3ccc4c(c3)C(=O)OC4=O)ccc21` [Example D5, 3,3′,4,4′-Biphenyltetracarboxylic dianhydride], the “Solubility of used solvent at 25° C.” value [3] was 0.1 g/100 g.

In the case of `O=C1OC(=O)c2cc(-c3ccc4c(c3)C(=O)OC4=O)ccc21` [Example D6, 3,3′,4,4′-Biphenyltetracarboxylic dianhydride], the “Solubility of used solvent at 25° C.” value [3] is reported as 0.4 g/100 g.

In the case of `O=C1OC(=O)c2cc(-c3ccc4c(c3)C(=O)OC4=O)ccc21` [Example D7, 3,3′,4,4′-Biphenyltetracarboxylic dianhydride], the “light transmittance of obtained s-BPDA powder at 400 nm” value [2] is reported as 79% and the “Solubility of used solvent at 25° C.” value [3] is reported as 0.3 g/100 g.

For `O=C1OC(=O)c2cc(-c3ccc4c(c3)C(=O)OC4=O)ccc21` [Example D8, 3,3′,4,4′-Biphenyltetracarboxylic dianhydride], the “light transmittance of obtained s-BPDA powder at 400 nm” value [2] was 91%.

With `N[C@H]1CC[C@H](N)CC1` [Example E2, trans-1,4-diaminocyclohexane] the “Light Transmittance at 400 nm (trans-1,4-diaminocyclohexane powder)” value [6] was 96%.

In the case of `O=C1OC(=O)c2c1cccc2-c1cccc2c1C(=O)OC2=O` [Example F1, 2,2′,3,3′-Biphenyltetracarboxylic dianhydride], the “Solubility at 25° C.” value [5] is reported as 3.2 g/100 g and the “Light Transmittance at 400 nm (i-BPDA)” value [4] is reported as 91%.

For `O=C1OC(=O)c2c1cccc2-c1cccc2c1C(=O)OC2=O` [Example F2, 2,2′,3,3′-Biphenyltetracarboxylic dianhydride], the “Solubility at 25° C.” value [5] was 4.4 g/100 g and the “Light Transmittance at 400 nm (i-BPDA)” value [4] was 92%.

In the case of `O=C1OC(=O)c2c1cccc2-c1cccc2c1C(=O)OC2=O` [Example F3, 2,2′,3,3′-Biphenyltetracarboxylic dianhydride], the “Solubility at 25° C.” value [5] is reported as 6.8 g/100 g and the “Light Transmittance at 400 nm (i-BPDA)” value [4] is reported as 93%.

For `O=C1OC(=O)c2c1cccc2-c1cccc2c1C(=O)OC2=O` [Example F4, 2,2′,3,3′-Biphenyltetracarboxylic dianhydride], the “Light Transmittance at 400 nm (i-BPDA)” value [4] was 93%.

In the case of `O=C1OC(=O)c2c1cccc2-c1cccc2c1C(=O)OC2=O` [Example F5, 2,2′,3,3′-Biphenyltetracarboxylic dianhydride], the “Light Transmittance at 400 nm (i-BPDA)” value [4] is reported as 91%.

In the case of `O=C1OC(=O)c2c1cccc2-c1cccc2c1C(=O)OC2=O` [Example F6, 2,2′,3,3′-Biphenyltetracarboxylic dianhydride], the “Light Transmittance at 400 nm (i-BPDA)” value [4] is reported as 95%.

In the case of `O=C1OC(=O)c2c1cccc2-c1cccc2c1C(=O)OC2=O` [Example F7, 2,2′,3,3′-Biphenyltetracarboxylic dianhydride], the “Light Transmittance at 400 nm (i-BPDA)” value [4] is reported as 89%.

For `CN1CCCC1=O` [NMP (99.62%), N-methyl-2-pyrrolidone], the “Light Transmittance at 400 nm (solvent)” value [7] was 88% and the “Light Transmittance at 400 nm after reflux (solvent)” value [8] was 0.1%.

In the case of `CN1CCCC1=O` [NMP (99.96%), N-methyl-2-pyrrolidone], the “Light Transmittance at 400 nm (solvent)” value [7] is reported as 89% and the “Light Transmittance at 400 nm after reflux (solvent)” value [8] is reported as 41%.

In the case of `N[C@H]1CC[C@H](N)CC1` [Referential Example E1, trans-1,4-diaminocyclohexane], the “Light Transmittance at 400 nm (trans-1,4-diaminocyclohexane powder)” value [6] is reported as 86%.

With `N[C@H]1CC[C@H](N)CC1` [Referential Example E2, trans-1,4-diaminocyclohexane] the “Light Transmittance at 400 nm (trans-1,4-diaminocyclohexane powder)” value [6] was 89%.
